Experimental data: patent publication US20250161245A1, “A MIXTURE OF UREA, BIURET AND N-CONTAINING BY-PRODUCTS CREATED DURING BIURET PRODUCTION AS A DIETARY NON-PROTEIN NITROGEN-SOURCE FOR RUMINANTS AND USES THEREOF” (Yara International ASA, priority 2022, published 2025)

Test system: rumen microbiota
Assay: Gas Production Test, in vitro rumen fermentation model (Example 1)
Assay type: cell-based
Conditions: for cumulative gas production after 72 hours (comparison): isonitrogenous, 72 hours in vitro incubation, against blank and other NPN sources; for lag period of cumulative gas production: buffered rumen fluid, 39° C.; for part still unused by the rumen microbes after 24 hours: based on the cumulative gas production profiles
Protocol: The in vitro model used to simulate rumen digestion and utilization of the products is the Gas Production Test protocol, adapted for protein digestibility, as described in more detail in the following paragraph.
Approximately 1 liter of rumen fluid was collected from two different rumen-fistulated animals in the morning. Rumen fluid was strained through a cheesecloth, kept at 39° C. under CO2 and then diluted 1:19 with a nitrogen-free buffer and mineral solution containing 10.03 g NaHCO3, 1.43 g Na2HPO4, 1.55 g KH2PO4, 0.15 g MgSO4·7H2O, 0.52 g Na2S, 0.017 g CaCl2·2H2O, 0.015 g MnCl2·4H2O, 0.002 g […], 0.012 g FeCl3·6H2O and 0.125 mg resazurin per liter.
To ensure the rumen fluid was depleted of free nitrogen and to ensure nitrogen would be the limiting factor for the microbial growth at the start of the experiment, the buffered rumen fluid was pre-incubated for 4 hours at 39° C. with a carbohydrate overload of glucose, xylose and soluble starch, each at 3.33 g/l. During this pre-incubation, all nitrogen available in the rumen fluid would be incorporated into bacterial protein and other bacterial nitrogen-containing components.
Each product was weighed into different glass bottles on an isonitrogenous base, providing 15 mg N per flask. Then, 60 ml of the pre-incubated buffered rumen fluid was added, under continuous flushing with CO2. Flasks were closed with rubber stoppers and placed in a shaking water bath with 50 movements per minute at 39° C. to start the incubation period. The gas production of each flask was recorded continuously for 72 hours using a fully automated system. All test products including a blank (i.e. no product added to the flask of rumen fluid) were tested in one run in triplicate.
The cumulative gas production was measured continuously for 72 hours.

[1] = 15 mg N per flask, 72 hours incubation

Row | Structure (SMILES) | cumulative gas production after 72 hours (comparison) | time after which gas production stopped / maximum cumulative gas production (end level) was reached [1] | lag period of cumulative gas production [1] | part still unused by the rumen microbes after 24 hours | time of highest (peak) gas production [1] | gas production rate from 20 to 50 hours (20 to 50 hours of incubation)
1 | O=c1[nH]c(=O)[nH]c(=O)[nH]1 [cyanuric acid, Cyanuric acid] | not significantly different | – | – | – | – | –
2 | NC(=O)NC(N)=O [Biuret] | – | 40 h | approximately 5 hours | approximately 60% | – | –
3 | Nc1nc(=O)[nH]c(=O)[nH]1 [ammelide, Ammelide] | not significantly different | – | – | – | – | –
4 | NC(=O)NC(=O)NC(N)=O [Triuret] | – | 60 h | 9 h | approximately 60% | 20 h | approximately 4 ml/hour
